The source made the active and inactive calls.

Here are results for 17 compounds from ChEMBL document CHEMBL1201862, “PubChem BioAssay data set” (2004).

Test [1] is described as follows: viability of uninfected HEp-2 cells – cell-based, HTS, cytotoxicity control for RSV inhibitor project, dose response (AID 2410). It is filed as functional. The note with it: human respiratory syncytial virus.
The target in test [2] is T1, Protein skinhead-1 (Caenorhabditis elegans, UniProt P34707).
T1 sequence (P34707 whole entry): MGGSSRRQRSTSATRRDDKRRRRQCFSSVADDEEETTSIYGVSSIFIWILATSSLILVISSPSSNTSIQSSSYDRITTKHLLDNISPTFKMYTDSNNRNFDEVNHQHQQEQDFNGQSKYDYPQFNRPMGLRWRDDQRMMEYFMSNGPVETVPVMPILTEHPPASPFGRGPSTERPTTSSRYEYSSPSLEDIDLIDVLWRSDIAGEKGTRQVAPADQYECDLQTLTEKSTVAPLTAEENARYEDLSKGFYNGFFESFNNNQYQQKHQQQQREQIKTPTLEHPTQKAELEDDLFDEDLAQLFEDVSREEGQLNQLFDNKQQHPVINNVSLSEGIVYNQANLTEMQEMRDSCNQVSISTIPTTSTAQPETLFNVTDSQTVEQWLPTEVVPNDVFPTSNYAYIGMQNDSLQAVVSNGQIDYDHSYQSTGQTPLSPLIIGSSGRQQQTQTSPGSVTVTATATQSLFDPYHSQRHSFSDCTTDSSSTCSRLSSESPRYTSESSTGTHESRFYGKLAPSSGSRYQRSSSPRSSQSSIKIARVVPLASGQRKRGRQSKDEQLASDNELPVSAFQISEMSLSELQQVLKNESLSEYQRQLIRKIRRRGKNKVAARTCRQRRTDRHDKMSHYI
It is filed as functional.

Test [3] concerns the target T2, Rac GTPase-activating protein 1 (Homo sapiens, UniProt Q9H0H5).
T2 sequence (Q9H0H5 whole entry): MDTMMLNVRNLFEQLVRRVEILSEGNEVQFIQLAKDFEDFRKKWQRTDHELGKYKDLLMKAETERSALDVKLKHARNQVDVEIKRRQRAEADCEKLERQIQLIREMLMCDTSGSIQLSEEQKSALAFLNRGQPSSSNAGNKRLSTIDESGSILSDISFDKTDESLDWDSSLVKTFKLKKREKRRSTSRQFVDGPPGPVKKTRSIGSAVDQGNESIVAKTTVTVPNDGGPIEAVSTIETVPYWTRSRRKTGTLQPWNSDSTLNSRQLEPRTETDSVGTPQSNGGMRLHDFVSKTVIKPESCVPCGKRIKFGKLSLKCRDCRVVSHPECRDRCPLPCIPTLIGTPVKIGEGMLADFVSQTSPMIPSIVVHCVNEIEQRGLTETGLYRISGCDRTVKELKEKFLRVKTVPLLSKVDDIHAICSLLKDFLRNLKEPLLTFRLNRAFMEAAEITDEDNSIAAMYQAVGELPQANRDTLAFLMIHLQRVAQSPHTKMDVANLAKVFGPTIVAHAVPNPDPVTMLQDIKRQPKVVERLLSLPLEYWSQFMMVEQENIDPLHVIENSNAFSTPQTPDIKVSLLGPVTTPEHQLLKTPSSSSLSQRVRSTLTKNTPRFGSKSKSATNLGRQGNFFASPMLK
Description: blockers of MgcRacGAP-driven Rac1 GTP hydrolysis – biochemical, ADP Hunter fluorescence, primary and confirmatory, confirmation (AID 624330). Format: functional.

In test [4] the target is T3, Calpain-2 catalytic subunit (Sus scrofa, UniProt P43367).
T3 sequence (P43367 whole entry): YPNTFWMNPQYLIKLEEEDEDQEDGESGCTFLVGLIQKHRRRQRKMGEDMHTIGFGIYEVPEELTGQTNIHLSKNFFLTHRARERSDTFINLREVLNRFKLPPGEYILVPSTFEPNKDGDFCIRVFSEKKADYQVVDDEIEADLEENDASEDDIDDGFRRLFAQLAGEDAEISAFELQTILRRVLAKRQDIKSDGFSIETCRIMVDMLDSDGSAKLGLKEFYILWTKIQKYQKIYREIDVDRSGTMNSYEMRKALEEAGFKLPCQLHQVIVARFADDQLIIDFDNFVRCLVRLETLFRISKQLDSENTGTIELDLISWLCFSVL
Description: m-calpain protease blockers, concentration series – biochemical, fluorogenic peptide substrate, dose response (AID 1420). Format: functional.

For test [5], the target named is Induced myeloid leukemia cell differentiation protein Mcl-1 (Homo sapiens, UniProt Q07820). It is filed as functional.
Induced myeloid leukemia cell differentiation protein Mcl-1, sequence (Q07820 whole entry): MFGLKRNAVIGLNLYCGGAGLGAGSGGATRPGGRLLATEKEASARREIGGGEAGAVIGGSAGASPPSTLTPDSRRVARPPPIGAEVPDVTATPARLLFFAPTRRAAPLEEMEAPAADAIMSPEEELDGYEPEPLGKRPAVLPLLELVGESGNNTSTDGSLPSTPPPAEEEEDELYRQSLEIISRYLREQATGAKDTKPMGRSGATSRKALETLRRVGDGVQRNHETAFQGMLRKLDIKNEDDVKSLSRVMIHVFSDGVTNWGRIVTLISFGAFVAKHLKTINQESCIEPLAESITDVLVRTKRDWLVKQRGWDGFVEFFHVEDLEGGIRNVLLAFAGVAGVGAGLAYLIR
Test [6] addresses T4, Microphthalmia-associated transcription factor (Homo sapiens, UniProt O75030).
T4 sequence (O75030 whole entry): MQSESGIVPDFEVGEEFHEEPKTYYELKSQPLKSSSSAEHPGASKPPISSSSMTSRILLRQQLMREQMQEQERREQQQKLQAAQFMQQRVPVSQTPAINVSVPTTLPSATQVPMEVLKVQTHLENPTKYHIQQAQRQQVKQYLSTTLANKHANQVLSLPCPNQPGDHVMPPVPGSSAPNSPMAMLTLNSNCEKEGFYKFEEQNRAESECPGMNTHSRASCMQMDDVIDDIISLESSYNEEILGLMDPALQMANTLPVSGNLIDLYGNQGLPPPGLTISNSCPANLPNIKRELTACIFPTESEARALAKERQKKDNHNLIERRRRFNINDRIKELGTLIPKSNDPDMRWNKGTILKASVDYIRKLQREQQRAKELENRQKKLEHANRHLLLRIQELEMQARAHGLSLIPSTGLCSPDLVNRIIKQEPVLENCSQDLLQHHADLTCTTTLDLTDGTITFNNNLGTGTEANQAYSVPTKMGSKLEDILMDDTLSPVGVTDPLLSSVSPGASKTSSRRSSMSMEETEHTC
Description: reducers of TRPM1 reporter luminescence, concentration series – cell-based, SK-MEL-5, cherry-picked, set 3, MITF inhibitor project, dose response (AID 493073).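 Further: SK-MEL-5 melanoma cells with luciferase driven by the MITF target TRPM1 promoter.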 Format: functional.

For test [7], the target named is Luciferin 4-monooxygenase (Photinus pyralis, UniProt P08659). Description: inhibition of purified Photinus pyralis luciferase – biochemical, luminescence, dose response (AID 1891).
Luciferin 4-monooxygenase, sequence (P08659 whole entry): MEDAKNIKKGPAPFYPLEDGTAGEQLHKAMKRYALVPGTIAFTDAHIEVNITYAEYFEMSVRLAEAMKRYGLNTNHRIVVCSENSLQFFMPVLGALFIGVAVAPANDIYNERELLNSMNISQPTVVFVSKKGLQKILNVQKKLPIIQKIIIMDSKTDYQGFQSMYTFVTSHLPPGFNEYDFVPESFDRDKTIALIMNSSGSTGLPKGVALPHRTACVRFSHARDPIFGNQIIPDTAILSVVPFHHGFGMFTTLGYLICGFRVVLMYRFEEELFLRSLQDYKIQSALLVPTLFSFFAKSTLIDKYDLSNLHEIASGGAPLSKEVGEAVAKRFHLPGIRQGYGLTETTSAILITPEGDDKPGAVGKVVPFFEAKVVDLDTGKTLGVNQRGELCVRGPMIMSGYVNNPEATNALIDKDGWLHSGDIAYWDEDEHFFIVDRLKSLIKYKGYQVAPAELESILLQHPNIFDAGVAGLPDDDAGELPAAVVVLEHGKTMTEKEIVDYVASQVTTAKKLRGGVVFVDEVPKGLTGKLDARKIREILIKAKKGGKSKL
Test [8] is described as follows: Luminescence Cell-Based Dose Confirmation HTS to Identify Inhibitors of Platelet Dense Granule Release. [Related pubchem assays: 1663 (Primary HTS), 1678 (Summary of Project)]. Format: functional.
Test [9] has as its target T5, Heat shock factor protein 1 (Mus musculus, UniProt P38532).
T5 sequence (P38532 whole entry): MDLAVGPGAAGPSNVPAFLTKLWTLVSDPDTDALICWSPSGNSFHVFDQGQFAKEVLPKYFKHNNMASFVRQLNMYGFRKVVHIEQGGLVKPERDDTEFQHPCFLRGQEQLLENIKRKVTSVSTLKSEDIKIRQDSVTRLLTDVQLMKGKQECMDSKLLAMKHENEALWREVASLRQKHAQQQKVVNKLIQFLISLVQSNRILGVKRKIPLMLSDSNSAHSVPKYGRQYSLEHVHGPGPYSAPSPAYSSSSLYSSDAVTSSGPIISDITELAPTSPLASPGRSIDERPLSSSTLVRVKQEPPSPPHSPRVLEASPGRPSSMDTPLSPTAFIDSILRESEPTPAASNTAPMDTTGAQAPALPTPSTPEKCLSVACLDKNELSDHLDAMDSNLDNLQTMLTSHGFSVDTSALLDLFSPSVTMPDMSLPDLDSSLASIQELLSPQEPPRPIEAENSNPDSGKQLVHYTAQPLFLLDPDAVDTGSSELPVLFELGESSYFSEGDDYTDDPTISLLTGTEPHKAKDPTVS
Description: enhancement of HSF1-driven luciferase signal – cell-based, NIH3T3, luminescence, dose retest, confirmation (AID 435004).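 Further: stress induced by proteasome inhibitor MG132 added 30 min after compound; luciferase reporter driven by HSF1 response element in NIH3T3 cells; actives raise luminescence as potentiators of the MG132 stress response.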 Format: functional.

A short description of test [10]: Trypanosoma cruzi growth suppression in host cells – NIH3T3 host cells, beta-gal luminescence, confirmation (AID 2044).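 Further: intracellular parasites grown in NIH/3T3 mouse fibroblasts as host cells; luminescent beta-galactosidase reporter signal from transgenic T. cruzi replicating inside host cells; inhibitors lower the luminescence signal.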 It is filed as functional, cell-based.
Test [11] is described as follows: NIH3T3 cell viability loss – ATP luminescence, mouse fibroblasts, counter-screen, dose response (AID 2010).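 Further: cells exposed to compound for about 90 hours before reading.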 Format: functional, cell-based. For orientation: The purpose of a counterscreen is to sort out artefacts and off-target activity.

`O=C(CSc1nc2ccccc2c(=O)n1-c1ccccc1)N1CCCc2ccccc21`: the CC50 (as a rule, the concentration that lowers cell viability or growth by half) in [1] is 39 µM (active). As to `C#Cc1cccc(-n2nnc(C(=O)OC)c2-c2ccccc2)c1`, the IC50 – broadly, the concentration at which inhibition is half-maximal – in test [2] is > 100 µM (inactive). Take `COc1cc(/C=N/NP(=S)(c2ccccc2)c2ccccc2)ccc1O`: in test [1], the CC50 is 30.3 µM (active). Also, the IC50 in [3] is 109 µM (active); in test [4] it was 14.2 µM (not active).

In the case of `O=C(Nc1nc(-c2ccccc2)cs1)c1ccccc1F`, the IC50 in [2] is > 100 µM (inactive).

On to `Cc1cccc(-n2ncc3c(NC(C)C)ncnc32)c1`, for which, in test [1], the CC50 was 34.4 µM (active). For `COc1ccc(NC(=O)Nc2ccc(N3CCOCC3)c3nonc23)c(OC)c1`, the IC50 in test [2] is > 100 µM (inactive). For the compound `CCOC(=O)c1c(N)sc2c1CCSC2`, in test [2], the IC50 was > 100 µM (inactive). Consider `COc1ccc(-c2csc(Nc3ccccc3)n2)cc1`, for which the IC50 in [2] was > 100 µM (inactive); in test [5], 10.3 µM (not active). For `C#CCCc1ccccc1/C=[N+](/C)[O-]`, the AC50 (in general, the concentration giving half of the maximal activity seen) in test [6] was 9.4 µM (active). As to `COC(=O)/C=C1\SC(N/N=C/c2ccc(Cl)cc2)=NC1=O`, the CC50 in test [1] is 23.5 µM (active). Besides, the figures for the EC50 in [7] and in [8] were 41.5 µM (active) and > 112 µM (not active), respectively.

Turning to `C(=C1c2ccccc2-c2ccccc21)c1ccncc1`, in [2], the IC50 is > 100 µM (inactive). With `O=C(CCCl)Nc1nc2c(s1)CCc1ccccc1-2`, the CC50 in test [1] was 4.52 µM (active). In test [9], the EC50 (in general, the midpoint of the concentration-response curve) was 22.2 µM (active). For `Brc1ccc(OCc2cn3ccccc3n2)cc1`, the EC50 in test [9] was > 260 µM (inactive). In test [2], the IC50 was 41.9 µM (active).

In the case of `CCCNC(=O)COC(=O)c1[nH]c(C)c(C(=O)OCC)c1C`, the IC50 in test [2] was > 100 µM (inactive). In the case of `COc1cc2c(cc1OC)C(C)N(S(=O)(=O)c1cnc(Cl)c(Cl)c1)CC2` (configuration not stated), the EC50 in test [9] was 29.3 µM (active). For the same compound, in [6], the AC50 is 12.1 µM (active).

`CCOc1ccc2nc(NC(=O)C3CCCN(S(=O)(=O)c4cccs4)C3)sc2c1` (configuration not stated): the CC50 in test [1] was 24.3 µM (active). The EC50 is 2.51 µM (active) in [10] and > 60 µM (not active) in test [11]. As for `O=C(CN1C(=O)CCS(=O)(=O)c2ccccc21)NCc1ccccc1`, the IC50 in test [2] was > 100 µM (inactive).
